Legend:
TLR4 = TLR4 (Homo sapiens, UniProt O00206); assay: TLR4 inhibitory and activating activity in THP-1 cells; assay type: cell-based; design: endogenous in cells; host or cells: THP-1 monocytes, PMA-stimulated
hPBMC = assay: Cytotoxicity in hPBMC (MTT); assay type: cell-based, human; conditions: 0.1, 1.0, 10, 100 and 1000 μM, 24 h
Experimental: The cells were treated with compounds and incubated for 24 h. Cell viability was assessed using MTT cell proliferation kit (Promega). All the compounds were not toxic to hPMBC (FIG. 12).

HUVECs [1] = assay: Cytotoxicity in HUVECs (MTT); assay type: cell-based, human; conditions: 100 μM, 24 h
Experimental: Selected TLR2/4 antagonist compounds 2, 6, 7, 8, 14, 17 and 32 were evaluated for cytotoxicity in HUVECs at 100 μM concentration. The cells were treated with compounds and incubated for 24 h. Cell viability was assessed using MTT cell proliferation kit (Promega). All the compounds were not toxic to HUVECs (FIG. 15).

HUVECs [2] = assay: Anti-angiogenic activity, VEGF induced tube formation in HUVECs; assay type: cell-based, human; conditions: VEGF 100 ng/mL
Experimental: Selected TLR2/4 antagonist compounds 2, 6, 7, 8, 14, 17 and 32 were evaluated for anti-angiogenic activity using the Tube Formation kit (Cat #3470-096-K). VEGF (100 ng/mL) was used as positive control. These compounds have potential applications in diseases associated with pathological angiogenesis such as solid tumor, […], diabetic retinopathy as well as AMD.

[3] = tested on: P. aeruginosa (ATCC-10145 GFP) infected skin wounds; assay: Murine skin wound infection with P. aeruginosa; assay type: in vivo, C57BL/6 mice
Experimental: Five groups of C57BL/6 mice (8-10 weeks old, n=4) were wounded on the dorsal surface. 25 ul containing 10^6 CFU/mL P. aeruginosa in a PBS suspension were pipetted onto the wound and allowed to absorb for at least 3 min. […] Subsequently and for the next 13 days, infected wounds were treated each alternate day with colistin, or with test compounds.

THP-1 cells = assay: Monocyte differentiation, phagocytosis and intracellular killing of Pseudomonas aeruginosa in THP-1 cells; assay type: cell-based, human
Source text: Two of these compounds 8 and 32 stimulated monocyte differentiation into macrophages, increased phagocytosis of Pseudomonas aeruginosa (FIG. 18) and increased intracellular killing of bacteria (FIG. 19). These compounds have potential to be used as vaccine adjuvants and in combination with existing antibiotic for prophylactic treatment such as in cystic fibrosis patients.

neonatal pups with BPD = assay: Hyperoxia mouse model of BPD (newborn pups); assay type: in vivo; conditions: for lung injury in neonatal pups with BPD: mouse model of BPD; for TLR4 inhibition in an in vivo model system: neonatal pups with BPD; for lung architecture: saline IV and nanosuspension IN
Source text: Neonatal mice and humans undergo similar stages of lung development but differ with respect to the duration of each stage and its temporal relationship to gestational age. The lungs of the mouse born at term are in the saccular stage and are surfactant sufficient; this can be considered somewhat akin to a human preterm neonate in the same stage of lung development that has been exposed to a full complement of antenatal steroids (which is known to enhance surfactant production). In terms of mimicking the human condition, the most successful hyperoxia models are those that limit exposure to hyperoxia to the saccular stage of pulmonary development. The mouse BPD model involves exposing newborn mice (postnatal day 1 or PN1) to 100% oxygen till PN4 followed by recovery in room air (RA) for another 10 days.
After the recovery period, their lungs were harvested and processed for quantitative PCR, western blotting, histopathology and ELISA.
Each of the compounds 3, 8 or 32 encapsulated in PLGA nanoparticles referred as 3NP, 8NP and 32NP was instilled intranasally (IN) as nanosuspension to newborn pups on PN2 and PN4 at different doses (FIG. 28). After the recovery period, their lungs were harvested and processed for quantitative PCR, western blotting and histopathology and ELISA.
BPD is characterized by large simplified alveoli, inflammation, increased cell death, decreased cell proliferation, dysmorphic capillary configuration, and variable interstitial cellularity and/or fibroproliferation. […] This is determined by measuring the alveolar chord length, septal thickness and radial alveolar count (RAC). In BPD, the alveolar area increases which is characterized by increase in the diameter of the alveolar sacs, the septa become thickened (thus interfering in gaseous exchange) and the RAC, a parameter used to assess the complexity of terminal respiratory unit by pulmonologists, decreases as a result of arrested lung development.

[4] = tested on: normal lung epithelial cells (AT-1); conditions: 1 mM and 2 mM, 48 h
Experimental: Compounds 8, 17, 29 and 35 were tested for cytotoxicity in normal lung epithelial cells (AT-1) at concentrations of 1 mM and 2 mM. The cells were treated with compounds and incubated for 48 h. Cell viability was assessed using tryptan blue live/dead assay.

Sequence of TLR4 (O00206 24-839): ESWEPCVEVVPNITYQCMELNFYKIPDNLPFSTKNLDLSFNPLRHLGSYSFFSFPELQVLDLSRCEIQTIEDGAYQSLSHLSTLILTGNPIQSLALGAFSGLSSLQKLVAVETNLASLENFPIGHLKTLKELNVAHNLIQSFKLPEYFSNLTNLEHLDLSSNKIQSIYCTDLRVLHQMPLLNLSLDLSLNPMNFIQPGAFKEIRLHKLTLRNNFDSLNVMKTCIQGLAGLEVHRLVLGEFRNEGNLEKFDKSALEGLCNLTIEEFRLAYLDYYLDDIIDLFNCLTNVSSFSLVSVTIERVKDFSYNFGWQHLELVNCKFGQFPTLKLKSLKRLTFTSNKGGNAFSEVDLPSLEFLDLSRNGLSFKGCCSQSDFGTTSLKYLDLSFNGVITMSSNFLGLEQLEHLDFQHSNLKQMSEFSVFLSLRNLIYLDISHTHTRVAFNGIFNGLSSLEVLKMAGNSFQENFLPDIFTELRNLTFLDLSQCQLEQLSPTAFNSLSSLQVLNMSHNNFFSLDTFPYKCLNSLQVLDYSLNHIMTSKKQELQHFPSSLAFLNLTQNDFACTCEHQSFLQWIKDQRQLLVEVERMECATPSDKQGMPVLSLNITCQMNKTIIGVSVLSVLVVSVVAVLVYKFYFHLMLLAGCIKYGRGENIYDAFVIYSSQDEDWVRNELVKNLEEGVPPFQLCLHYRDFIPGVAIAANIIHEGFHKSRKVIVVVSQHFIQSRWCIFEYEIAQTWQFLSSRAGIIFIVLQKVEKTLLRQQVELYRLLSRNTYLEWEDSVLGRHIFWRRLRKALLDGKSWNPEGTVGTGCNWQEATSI

| Compound | TLR2/4 antagonist or TLR4 agonist activity as shown in Table-1 (TLR4) | cytotoxicity in hPBMC (hPBMC) | cytotoxicity in HUVECs (HUVECs [1]) | VEGF induced tube formation (HUVECs [2]) | further results |
| --- | --- | --- | --- | --- | --- |
| CC(=O)NC1[C@H](Oc2ccc3c(C)cc(=O)oc3c2)O[C@H](CO)[C@@H](O)[C@@H]1O (single isomer, unassigned) [Compound 29] | TLR4 agonists | – | – | – | – |
| CC(=O)NC1[C@H](Oc2ccc(N3CCN(C(C)=O)CC3)cc2)O[C@H](CO)[C@@H](O)[C@@H]1O (single isomer, unassigned) [Compound 28] | TLR4 agonists | – | – | – | – |
| CC(=O)NC1C(Oc2ccc3nonc3c2)OC(CO)C(O)C1O (stereo in doubt) [Compound 17, N-((2S,3R,4S,5S,6R)-2-(benzo[c][1,2,5]oxadiazol-5-yloxy)-4,5-dihydroxy-6-(hydroxymethyl)tetrahydro-2H-pyran-3-yl)acetamide] | TLR4 agonists | not toxic | not toxic | significantly deceased | – |
| colistin [reference compound] | – | – | – | – | wound closure at day 13 ([3]; 25 μl Colistin 4 μg/ml or compound 100 μg/ml, each alternate day): complete closure; re-epithelialization and granulation tissue versus controls ([3]; H&E histology, day 13 post-injury): significantly enhanced |
| CC(=O)N[C@H]1[C@H](Oc2ccc3c(C)cc(=O)oc3c2)O[C@H](COS(=O)(=O)O)[C@@H](O)[C@@H]1O [Compound 30] | TLR4 agonists | – | – | – | – |
| CC(=O)NC1[C@H](Oc2cccc3sc(NC(=O)C(C)(C)C)nc23)O[C@H](CO)[C@@H](O)[C@@H]1O (single isomer, unassigned) [Compound 23] | TLR4 agonists | – | – | – | – |
| CC(=O)N[C@@H]1[C@@H](OC(C)=O)[C@H](OC(C)=O)[C@@H](COC(C)=O)O[C@H]1NC(=O)c1ccc(O[C@@H]2O[C@H](CO)[C@@H](O)[C@H](O)[C@H]2NC(C)=O)cc1 [Compound 2] | – | not toxic | not toxic | significantly deceased | – |
| CC(=O)NC1[C@H](Oc2ccc(B3OC(C)(C)C(C)(C)O3)cc2)O[C@H](CO)[C@@H](O)[C@@H]1O (single isomer, unassigned) [Compound 32, p-Pinacoloneboronatephenyl 2-acetamido-2-deoxy-β-D-glucopyranoside] | – | not toxic | not toxic | significantly deceased | monocyte differentiation into macrophages (THP-1 cells): stimulated; intracellular killing of bacteria (THP-1 cells; Pseudomonas aeruginosa, THP-1 cells): increased; phagocytosis of Pseudomonas aeruginosa (THP-1 cells; THP-1 cells): increased; lung injury in neonatal pups with BPD (neonatal pups with BPD): prevent lung injury; TLR4 inhibition in an in vivo model system (neonatal pups with BPD): inhibit TLR4; lung architecture (neonatal pups with BPD): restored |
| CC(=O)O[C@H]1C(=O)[C@@]2(C)[C@H]([C@H](OC(=O)c3ccccc3)[C@]3(O)C[C@H](OC(=O)[C@H](O)[C@@H](NC(=O)c4ccccc4)c4ccccc4)C(C)=C1C3(C)C)[C@]1(OC(C)=O)CO[C@@H]1C[C@@H]2O [Taxol] | – | – | – | – | cytotoxicity in normal lung epithelial cells (AT-1) [4]: toxic |
| CC(=O)N[C@@H]1C(Oc2ccc(Cl)cc2)OC(CO)C(O)C1O (stereo partly shown) [Compound 39] | TLR4 agonists | – | – | – | – |
| CC(=O)N[C@H]1[C@H](Oc2ccc(NC(=O)c3ccc(O[C@@H]4O[C@H](CO)[C@@H](O)[C@H](O)[C@H]4NC(C)=O)cc3)cc2)O[C@H](CO)[C@@H](O)[C@@H]1O [Compound 7] | – | not toxic | not toxic | significantly deceased | – |
| CC(=O)N[C@H]1[C@H](Oc2ccc(C#N)cc2)O[C@H](CO)[C@@H](O)[C@@H]1O [Compound 14, p-Cyanophenyl 2-acetamido-2-deoxy-β-D-glucopyranoside] | – | not toxic | not toxic | significantly deceased | – |
| COc1ccc(OC2OC(CO)C(O)C(O)[C@@H]2NC(C)=O)cc1 (stereo partly shown) [Compound 38] | TLR4 agonists | – | – | – | – |
| CC(=O)N[C@@H]1[C@@H](O)[C@H](O)[C@@H](CO)O[C@H]1NC(=O)c1ccc(O[C@@H]2O[C@H](CO)[C@@H](O)[C@H](O)[C@H]2NC(C)=O)cc1 [Compound 3] | – | – | – | – | lung injury in neonatal pups with BPD (neonatal pups with BPD): prevent lung injury; TLR4 inhibition in an in vivo model system (neonatal pups with BPD): inhibit TLR4; lung architecture (neonatal pups with BPD): restored |
| CC(=O)N[C@H]1[C@H](Oc2ccc(C(=O)Nc3ccc(O[C@@H]4O[C@H](COC(C)=O)[C@@H](OC(C)=O)[C@H](OC(C)=O)[C@H]4NC(C)=O)cc3)cc2)O[C@H](CO)[C@@H](O)[C@@H]1O [Compound 6] | – | – | not toxic | significantly deceased | – |
| CC(=O)N[C@@H]1C(Oc2ccccc2O)OC(CO)C(O)C1O (stereo partly shown) [Compound 40] | TLR4 agonists | – | – | – | – |

— patent US20200022995A1, “Novel Immunodulating Small Molecules” (AyuVis Research, Inc., priority 2018, published 2020)
